Structures are written as SMILES. Structures can show the parent of a compound that is named as a salt.

This assay concerns the target T1, PD brain-derived alpha-synuclein aggregates (Homo sapiens, UniProt P37840).
T1 construct: from tissue; host or cells: human PD donor brain tissue, sarkosyl-insoluble fraction
Put plainly: Micro-radiobinding competition assay for the determination of binding affinity. The conditions noted are these: for Ki: compound concentrations 0.05 nM to 2 μM, nonlinear regression, one site model. The protocol:
The procedure was adapted from the protocol described in Spillantini et al., 1998. Frozen tissue blocks from PD donors were thawed on ice and homogenized using a glass dounce homogenizer. The homogenate was then centrifuged at 11,000×g (12,700 RPM) in an ultracentrifuge (Beckman, XL100K) for 20 minutes at 4° C. using a pre-cooled 70.1 rotor (Beckman, 342184). Pellets were resuspended in extraction buffer [10 mM Tris —HCl PH 7.4, 10% sucrose, 0.85 mM NaCl, 1% protease inhibitor (Calbiochem 539131), 1 mM EGTA, 1% phosphatase inhibitor (Sigma P5726 and P0044)] and centrifuged at 15,000×g (14,800 RPM, a 70.1 Ti rotor) for 20 minutes at 4° C. Pellets were discarded and sarkosyl (20% stock solution, Sigma L7414) was added to the supernatants to a final concentration of 1% at room temperature for one hour. This solution was then centrifuged at 100,000×g (38,000 RPM, 70.1 Ti rotor) for one hour at 4° C. Pellets containing enriched alpha-synuclein aggregates were resuspended in PBS and stored at −80° C. until use.
PD brain-derived alpha-synuclein aggregates were spotted onto microarray slides. The slides were incubated with tritiated reference alpha-synuclein ligand at 6 nM, 20 nM or 30 nM and the example compounds (non-radiolabelled) at 1 μM and 100 nM. In some cases, the non-radiolabelled example compounds were further assessed for a range of different concentrations, varying from 0.05 nM to 2 μM. After incubation, slides were washed and scanned by a real-time autoradiography system (BeaQuant, ai4R). Quantification of the signal was performed by using the Beamage image analysis software (ai4R). Non-specific signal was determined with an excess of non-radiolabelled reference alpha-synuclein ligand (2 μM) and specific binding was calculated by subtracting the non-specific signal from the total signal. Competition was calculated as percent, where 0% was defined as the specific binding in the presence of vehicle and 100% as the values obtained in the presence of excess of the non-radiolabelled reference alpha-synuclein ligand. Ki values were calculated in GraphPad Prism7 by applying a nonlinear regression curve fit using a one site, specific binding model. All measurements were performed with at least two technical replicates. For compounds tested in more than one experiment, the mean of the replicates or Ki values in independent experiments is reported.
Results: Example compounds were assessed for their potency to compete with the binding of a tritiated reference alpha-synuclein ligand to PD patient brain-derived alpha-synuclein aggregates. Results of the micro-radiobinding competition assay for the example compounds tested are shown in Table 2 as: % competition at 1 μM and 100 nM.

[1] abbreviates: 100 nM non-radiolabelled example compound, competition over tritiated reference alpha-synuclein ligand (6 nM, 20 nM or 30 nM).
[2] abbreviates: 1 μM non-radiolabelled example compound, competition over tritiated reference alpha-synuclein ligand (6 nM, 20 nM or 30 nM).

As to `Cc1ccc(N2Cc3cn(-c4ccc(N5CCC(F)C5)nc4)nc3C2=O)cn1` (stereo in doubt) [Example 13, 2-{6-[(3S)-3-fluoropyrrolidin-1-yl]pyridin-3-yl}-5-(6-methylpyridin-3-yl)-2H,4H,5H,6H-pyrrolo[3,4-c]pyrazol-6-one hydrochloride], the “Micro-radiobinding competition assay Competition at 100 nM (%)” value under setting [1] stood at 37%. The “Micro-radiobinding competition assay Competition at 1 μM (%)” value (1 μM non-radiolabelled example compound, competition over tritiated reference alpha-synuclein ligand (6 nM, 20 nM or 30 nM), hydrochloride) was found to be 87%.
As to `O=C1c2nn(-c3ccc(N4CC[C@@H](F)C4)nc3)cc2CN1c1cccnc1` [Example 1, 2-{6-[(3R)-3-fluoropyrrolidin-1-yl]pyridin-3-yl}-5-(pyridin-3-yl)-2H,4H,5H,6H-pyrrolo[3,4-c]pyrazol-6-one], the Ki (in general, a dissociation constant, usually derived from enzyme kinetics or from competition with a known ligand) is 84 nM. Besides, the inhibition (commonly the relative decrease from the control value, in per cent) at 0.1 µM under setting [1] was 58%. The inhibition at 1 µM under setting [2] is 86%.
`O=C1c2nn(-c3ccc(N4CC[C@H](F)C4)nc3)cc2CN1c1cccnc1` [Example 2, 2-{6-[(3S)-3-fluoropyrrolidin-1-yl]pyridin-3-yl}-5-(pyridin-3-yl)-2H,4H,5H,6H-pyrrolo[3,4-c]pyrazol-6-one] registered an inhibition constant Ki of 115 nM. Moreover, the inhibition at 0.1 µM under setting [1] is 34%. Moreover, the inhibition at 1 µM under setting [2] is 80%.
`Cn1cc(N2Cc3cn(-c4ccc(N5CC(F)C5)nc4)nc3C2=O)cn1` [Example 3, 2-(6-(3-fluoroazetidin-1-yl)pyridin-3-yl)-5-(1-methyl-1H-pyrazol-4-yl)-4,5-dihydropyrrolo[3,4-c]pyrazol-6(2H)-one] had a Ki of 54 nM. Besides, under setting [1], the inhibition at 0.1 µM stood at 38%. Further, the inhibition at 1 µM under setting [2] is 89%.
`Cn1cc(N2Cc3cn(-c4ccc(N5CC[C@H](F)C5)nc4)nc3C2=O)cn1` [Example 4, 2-{6-[(3S)-3-fluoropyrrolidin-1-yl]pyridin-3-yl}-5-(1-methyl-1H-pyrazol-4-yl)-2H,4H,5H,6H-pyrrolo[3,4-c]pyrazol-6-one]: under setting [1], the inhibition at 0.1 µM worked out at 28%. For the same compound, the inhibition at 1 µM under setting [2] was 75%.
Taken in the same sequence, the figures for `Cn1cc(N2Cc3cn(-c4ccc(N5CC[C@@H](F)C5)nc4)nc3C2=O)cn1` [Example 5, 2-{6-[(3R)-3-fluoropyrrolidin-1-yl]pyridin-3-yl}-5-(1-methyl-1H-pyrazol-4-yl)-2H,4H,5H,6H-pyrrolo[3,4-c]pyrazol-6-one] were 74% and 101%.
Regarding `COc1cncc(N2Cc3cn(-c4ccc(N5CC[C@H](F)C5)nc4)nc3C2=O)c1` [Example 6, 2-{6-[(3S)-3-fluoropyrrolidin-1-yl]pyridin-3-yl}-5-(5-methoxypyridin-3-yl)-2H,4H,5H,6H-pyrrolo[3,4-c]pyrazol-6-one], the inhibition at 0.1 µM under setting [1] was found to be 26%. The inhibition at 1 µM under setting [2] turned out to be 60%.
For `COc1cncc(N2Cc3cn(-c4ccc(N5CC[C@@H](F)C5)nc4)nc3C2=O)c1` [Example 7, 2-{6-[(3R)-3-fluoropyrrolidin-1-yl]pyridin-3-yl}-5-(5-methoxypyridin-3-yl)-2H,4H,5H,6H-pyrrolo[3,4-c]pyrazol-6-one] the same measures were 10% and 52%.
Turning to `Cc1ccc(N2Cc3cn(-c4ccc(N5CC[C@@H](F)C5)nc4)nc3C2=O)cn1` [Example 8, 2-{6-[(3R)-3-fluoropyrrolidin-1-yl]pyridin-3-yl}-5-(6-methylpyridin-3-yl)-2H,4H,5H,6H-pyrrolo[3,4-c]pyrazol-6-one], the affinity corresponds to a Ki of 226 nM. For the same compound, the inhibition at 0.1 µM under setting [1] is 37%. The inhibition at 1 µM under setting [2] came out at 71%.
As for `Cc1ccc(N2Cc3cn(-c4ccc(N5CC[C@H](F)C5)nc4)nc3C2=O)cn1` [Example 9, 2-{6-[(3S)-3-fluoropyrrolidin-1-yl]pyridin-3-yl}-5-(6-methylpyridin-3-yl)-2H,4H,5H,6H-pyrrolo[3,4-c]pyrazol-6-one], the inhibition at 0.1 µM under setting [1] was 37%. In addition, the inhibition at 1 µM under setting [2] is 87%.
For the compound `O=C1c2nn(-c3ccc(N4CC[C@@H](F)C4)nc3)nc2CN1c1cccnc1` [Example 10, 2-{6-[(3R)-3-fluoropyrrolidin-1-yl]pyridin-3-yl}-5-(pyridin-3-yl)-2H,4H,5H,6H-pyrrolo[3,4-d][1,2,3]triazol-4-one], affinity was put at a Ki of 30 nM. Also, the inhibition at 0.1 µM under setting [1] was found to be 74%. Besides, the inhibition at 1 µM under setting [2] amounted to 97%.
As to `O=C1c2nn(-c3ccc(N4CC[C@H](F)C4)nc3)cc2CN1c1cncs1` [Example 11, 2-{6-[(3S)-3-fluoropyrrolidin-1-yl]pyridin-3-yl}-5-(1,3-thiazol-5-yl)-2H,4H,5H,6H-pyrrolo[3,4-c]pyrazol-6-one], the inhibition at 0.1 µM under setting [1] was 41%. Moreover, under setting [2], the inhibition at 1 µM stood at 90%.
With `O=C1c2nn(-c3ccc(N4CC[C@@H](F)C4)nc3)cc2CN1c1cncs1` [Example 12, 2-{6-[(3R)-3-fluoropyrrolidin-1-yl]pyridin-3-yl}-5-(1,3-thiazol-5-yl)-2H,4H,5H,6H-pyrrolo[3,4-c]pyrazol-6-one], the Ki came to 52 nM. For the same compound, under setting [1], the inhibition at 0.1 µM stood at 64%. Also, under setting [2], the inhibition at 1 µM was found to be 94%.
As for `Cn1cc(N2Cc3cn(-c4ccc(N5CCCC(F)CC5)nc4)nc3C2=O)cn1` (centres unmarked) [Example 14, 2-(6-(4-fluoroazepan-1-yl)pyridin-3-yl)-5-(1-methyl-1H-pyrazol-4-yl)-4,5-dihydropyrrolo[3,4-c]pyrazol-6(2H)-one hydrochloride], the inhibition at 0.1 µM under setting [1] came out at 0%. Also, the inhibition at 1 µM under setting [2] was 66%.
For `Cc1ncc(N2Cc3cn(-c4ccc(N5CC[C@@H](F)C5)nc4)nc3C2=O)s1` [Example 15, (R)-2-(6-(3-fluoropyrrolidin-1-yl)pyridin-3-yl)-5-(2-methylthiazol-5-yl)-4,5-dihydropyrrolo[3,4-c]pyrazol-6(2H)-one] the same measures were 71% and 92%.
Turning to `Cc1ncc(N2Cc3cn(-c4ccc(N5CC[C@H](F)C5)nc4)nc3C2=O)s1` [Example 16, (S)-2-(6-(3-fluoropyrrolidin-1-yl)pyridin-3-yl)-5-(2-methylthiazol-5-yl)-4,5-dihydropyrrolo[3,4-c]pyrazol-6(2H)-one], the affinity corresponds to a Ki of 40 nM. Moreover, under setting [1], the inhibition at 0.1 µM came to 69%. Further, under setting [2], the inhibition at 1 µM worked out at 90%.
Taken in the same sequence, the figures for `O=C1c2nn(-c3ccc(OCCF)nc3)cc2CN1c1cccnc1` [Example 17, 2-(6-(2-fluoroethoxy)pyridin-3-yl)-5-(pyridin-3-yl)-4,5-dihydropyrrolo[3,4-c]pyrazol-6 (2H)-one] were 214 nM, 31% and 63%.
Taken in the same sequence, the figures for `Cn1cc(N2Cc3cn(-c4ccc(OCCF)nc4)nc3C2=O)cn1` [Example 18, 2-(6-(2-fluoroethoxy)pyridin-3-yl)-5-(1-methyl-1H-pyrazol-4-yl)-4,5-dihydropyrrolo[3,4-c]pyrazol-6(2H)-one] were 78 nM, 54% and 81%.
For `O=C1c2nn(-c3ccc(OCCF)nc3)cc2CN1c1cncs1` [Example 19, 2-(6-(2-fluoroethoxy)pyridin-3-yl)-5-(thiazol-5-yl)-4,5-dihydropyrrolo [3,4-c]pyrazol-6(2H)-one], the affinity, expressed as Ki, was 86 nM. Besides, the inhibition at 0.1 µM under setting [1] was 46%. For the same compound, the inhibition at 1 µM under setting [2] is 78%.
For the compound `Cc1ncc(N2Cc3cn(-c4ccc(OCCF)nc4)nc3C2=O)s1` [Example 20, 2-(6-(2-fluoroethoxy)pyridin-3-yl)-5-(2-methylthiazol-5-yl)-4,5-dihydro-pyrrolo[3,4-c]pyrazol-6(2H)-one], the inhibition at 0.1 µM under setting [1] amounted to 55%. The inhibition at 1 µM under setting [2] stood at 86%.

Source of the values: patent US20250034149A1, “DIHYDROPYRROLO[3,4C]-PYRAZOLE DERIVATIVES AND THEIR USE IN DIAGNOSIS” (AC IMMUNE SA, priority 2021, published 2025).
